Measurements published in PMC13198257, “An aerosolized dual-action autotaxin inhibitor-PPARγ agonist for the treatment of pulmonary fibrosis” (Cell Reports Medicine, 2026).

System: lung gene expression
Assay: RNA sequencing of lung tissue (BLM/EL244 vs BLM)
Format: in vivo, mouse
Protocol: RNA quality was assessed using an Agilent TapeStation 4150 with the High Sensitivity […] ScreenTape (Agilent), according to the manufacturer’s protocols. For library preparation, the QuantSeq 3’mRNA-Seq Library Prep Kit (Lexogen) was used according to manufacturer’s instructions. Briefly, 500 ng of RNA from each sample was used for first-strand synthesis, followed by RNA template removal, and second-strand synthesis initiated by random primers. In-line barcodes were introduced at this step, and this was followed by magnetic bead-based purification. The resulting libraries were amplified for 15 cycles and re-purified, with quantity and quality assessed on a Qubit 4 Fluorometer with the Invitrogen Qubit dsDNA HS Assay and an Agilent Tapestation 4150 with the High Sensitivity D1000 assay kit, respectively. The quantified libraries were pooled equimolarly; 50ng of total library mix was used for Adapter Conversion PCR Amplification using the Universal Library Conversion Kit (App-A), Version: V1.0 (MGI Tech Co., Ltd.), according to the manufacturer’s instructions.
The quantity and quality of the purified adapter conversion PCR (AC-PCR) product were evaluated on a Qubit 4 Fluorometer with the Invitrogen Qubit dsDNA HS Assay and on an Agilent Tapestation 4150 with the High Sensitivity D1000 assay kit, respectively. This was followed by DNA denaturation, Single-Strand Circularisation, Enzymatic Digestion, Enzymatic Digestion Product Cleanup and Quality Control steps on 1 pmol of AC-PCR product, according to the Universal Library Conversion Kit (App-A) User Manual (Version: A3).
Finally, 60 fmol of ssCirDNA were used for DNB preparation and sequencing on a DNBSEQ-G400 platform at the BSRC Alexander Fleming Genomics Facility, using a G400 App-A FCS SE100 High-throughput Sequencing Set (MGI Tech Co., Ltd.), according to the manufacturer’s instructions.
Alignment of the FASTQ files was performed against the mouse genome build mm10 using a custom Bash script.[143] Read counting on the 3′ UTRs and differential expression analysis were conducted using the metaseqR2 bioconductor package.[144] Genes corresponding to the following biotypes were excluded: polymorphic_pseudogene, processed_transcript, pseudogene, IG_V_pseudogene, misc_RNA, IG_C_gene, IG_J_gene, IG_D_gene, IG_LV_gene, TR_V_gene, TR_V_pseudogene, TEC, and processed_pseudogene. Gene counts were normalized with DESEQ[145] through metaseqR2. Genes with more than 10 counts in at least 50% of the samples were kept for further processing. For differential expression analysis, the PANDORA algorithm[146] was used to estimate a meta p-value integrating the results from the DESEQ, DESEQ2,[147] edgeR,[148] limma,[149] NBPSeq,[150] and NOISeq[151] algorithms. All additional parameters were set to default values.
Pathway enrichment analysis was performed for the Gene Ontology Biological process (BP) and Molecular Function (MF) terms through GeneCodis 4.[152] The volcano plots, scatterplots, Venn diagrams, and dot plots were generated using the ggplot2 Bioconductor package.

[1] = lung tissue of BLM-treated mice, BLM/EL244 vs BLM

With `O=C1NC(=O)C(Cc2ccc(OCCC3CCN(C(=O)OCc4cc(Cl)cc(Cl)c4)CC3)cc2)S1` (stereo not shown) [EL244, 3,5-dichlorobenzyl 4-(2-(4-((2,4-dioxothiazolidin-5-yl)methyl)phenoxy)ethyl)piperidine-1-carboxylate] the “Rora log2 nFC BLM/EL244 vs BLM” value (DEG Rora, nFC: normalised fold change) was 0.80, the “log2 nFC BLM/EL244 vs BLM” value (DEG Rrm2) was -2.56 and the “Ryr2 log2 nFC BLM/EL244 vs BLM” value (DEG Ryr2, nFC: normalised fold change) was 2.14. The “S1pr4 log2 nFC BLM/EL244 vs BLM” value (DEG S1pr4, nFC: normalised fold change) was 0.94, the “S1pr5 log2 nFC BLM/EL244 vs BLM” value (DEG S1pr5, nFC: normalised fold change) was 1.64 and the “log2 nFC BLM/EL244 vs BLM” value (DEG S100a4) was -1.26. The “S100a8 log2 nFC BLM/EL244 vs BLM” value (DEG S100a8, nFC: normalised fold change) was 1.52, the “S100a9 log2 nFC BLM/EL244 vs BLM” value (DEG S100a9, nFC: normalised fold change) was 2.11 and the “log2 nFC BLM/EL244 vs BLM” value (DEG S100a14) was -1.28. The “Scn3a log2 nFC BLM/EL244 vs BLM” value (DEG Scn3a, nFC: normalised fold change) was 0.75, the “Scube2 log2 nFC BLM/EL244 vs BLM” value (DEG Scube2, nFC: normalised fold change) was 0.74 and the “Sec14l3 log2 nFC BLM/EL244 vs BLM” value (DEG Sec14l3, nFC: normalised fold change) was 0.69. The “Sec14l4 log2 nFC BLM/EL244 vs BLM” value (DEG Sec14l4, nFC: normalised fold change) was 0.77, the “Sell log2 nFC BLM/EL244 vs BLM” value (DEG Sell, nFC: normalised fold change) was 1.03 and the “Sema3g log2 nFC BLM/EL244 vs BLM” value (DEG Sema3g, nFC: normalised fold change) was 0.78. For the same compound, the “log2 nFC BLM/EL244 vs BLM” value (DEG Serpina3g) was -1.31, the “Sftpa1 log2 nFC BLM/EL244 vs BLM” value (DEG Sftpa1, nFC: normalised fold change) was 0.70 and the “Sgip1 log2 nFC BLM/EL244 vs BLM” value (DEG Sgip1, nFC: normalised fold change) was 0.90. The “Sgms1 log2 nFC BLM/EL244 vs BLM” value (DEG Sgms1, nFC: normalised fold change) was 0.71, the “log2 nFC BLM/EL244 vs BLM” value (DEG Ska1) was -2.52 and the “log2 nFC BLM/EL244 vs BLM” value (DEG Slamf8) was -1.24. For the same compound, the “Slc2a4rg-ps log2 nFC BLM/EL244 vs BLM” value (DEG Slc2a4rg-ps, nFC: normalised fold change) was 0.85, the “Slc7a10 log2 nFC BLM/EL244 vs BLM” value (DEG Slc7a10, nFC: normalised fold change) was 0.97 and the “log2 nFC BLM/EL244 vs BLM” value (DEG Slc7a11) was -1.50. For the same compound, the “Slc16a11 log2 nFC BLM/EL244 vs BLM” value (DEG Slc16a11, nFC: normalised fold change) was 0.79, the “Slc38a4 log2 nFC BLM/EL244 vs BLM” value (DEG Slc38a4, nFC: normalised fold change) was 1.12 and the “Slc43a3 log2 nFC BLM/EL244 vs BLM” value (DEG Slc43a3, nFC: normalised fold change) was 0.73. For the same compound, the “Sln log2 nFC BLM/EL244 vs BLM” value (DEG Sln, nFC: normalised fold change) was 2.01, the “Smad6 log2 nFC BLM/EL244 vs BLM” value (DEG Smad6, nFC: normalised fold change) was 1.18 and the “Smpx log2 nFC BLM/EL244 vs BLM” value (DEG Smpx, nFC: normalised fold change) was 2.34. The “Smyd1 log2 nFC BLM/EL244 vs BLM” value (DEG Smyd1, nFC: normalised fold change) was 1.73, the “Snhg11 log2 nFC BLM/EL244 vs BLM” value (DEG Snhg11, nFC: normalised fold change) was 1.40 and the “Sntb1 log2 nFC BLM/EL244 vs BLM” value (DEG Sntb1, nFC: normalised fold change) was 0.72. The “Snx21 log2 nFC BLM/EL244 vs BLM” value (DEG Snx21, nFC: normalised fold change) was 1.15, the “Sorbs1 log2 nFC BLM/EL244 vs BLM” value (DEG Sorbs1, nFC: normalised fold change) was 0.70 and the “Sorbs3 log2 nFC BLM/EL244 vs BLM” value (DEG Sorbs3, nFC: normalised fold change) was 0.80. The “log2 nFC BLM/EL244 vs BLM” value (DEG Sox9) was -1.42, the “log2 nFC BLM/EL244 vs BLM” value (DEG Spp1) was -1.50 and the “Srcin1 log2 nFC BLM/EL244 vs BLM” value (DEG Srcin1, nFC: normalised fold change) was 0.91. For the same compound, the “Syne1 log2 nFC BLM/EL244 vs BLM” value (DEG Syne1, nFC: normalised fold change) was 0.70, the “Synm log2 nFC BLM/EL244 vs BLM” value (DEG Synm, nFC: normalised fold change) was 0.84 and the “log2 nFC BLM/EL244 vs BLM” value (DEG Tacc3) was -1.27. For the same compound, the “Tbata log2 nFC BLM/EL244 vs BLM” value (DEG Tbata, nFC: normalised fold change) was 1.72, the “Tbkbp1 log2 nFC BLM/EL244 vs BLM” value (DEG Tbkbp1, nFC: normalised fold change) was 0.71 and the “Tcap log2 nFC BLM/EL244 vs BLM” value (DEG Tcap, nFC: normalised fold change) was 1.73. The “log2 nFC BLM/EL244 vs BLM” value (DEG Tcf19) was -1.42, the “Tex11 log2 nFC BLM/EL244 vs BLM” value (DEG Tex11, nFC: normalised fold change) was 1.83 and the “Tgfbr3 log2 nFC BLM/EL244 vs BLM” value (DEG Tgfbr3, nFC: normalised fold change) was 0.83. For the same compound, the “Tmem100 log2 nFC BLM/EL244 vs BLM” value (DEG Tmem100, nFC: normalised fold change) was 0.82, the “Tmem182 log2 nFC BLM/EL244 vs BLM” value (DEG Tmem182, nFC: normalised fold change) was 2.26 and the “Tmem132d log2 nFC BLM/EL244 vs BLM” value (DEG Tmem132d, nFC: normalised fold change) was 2.38. For the same compound, the “log2 nFC BLM/EL244 vs BLM” value (DEG Tnip3) was -1.47, the “Tnnc1 log2 nFC BLM/EL244 vs BLM” value (DEG Tnnc1, nFC: normalised fold change) was 2.18 and the “Tnni3 log2 nFC BLM/EL244 vs BLM” value (DEG Tnni3, nFC: normalised fold change) was 2.31. For the same compound, the “Tnnt2 log2 nFC BLM/EL244 vs BLM” value (DEG Tnnt2, nFC: normalised fold change) was 1.77, the “Tns2 log2 nFC BLM/EL244 vs BLM” value (DEG Tns2, nFC: normalised fold change) was 0.77 and the “Tppp3 log2 nFC BLM/EL244 vs BLM” value (DEG Tppp3, nFC: normalised fold change) was 0.77. The “log2 nFC BLM/EL244 vs BLM” value (DEG Trem2) was -1.42, the “log2 nFC BLM/EL244 vs BLM” value (DEG Trip13) was -1.42 and the “Ttn log2 nFC BLM/EL244 vs BLM” value (DEG Ttn, nFC: normalised fold change) was 2.53. The “Unc45b log2 nFC BLM/EL244 vs BLM” value (DEG Unc45b, nFC: normalised fold change) was 0.77, the “Upk3b log2 nFC BLM/EL244 vs BLM” value (DEG Upk3b, nFC: normalised fold change) was 1.53 and the “Vpreb3 log2 nFC BLM/EL244 vs BLM” value (DEG Vpreb3, nFC: normalised fold change) was 0.71. The “Vwa3b log2 nFC BLM/EL244 vs BLM” value (DEG Vwa3b, nFC: normalised fold change) was 0.98, the “log2 nFC BLM/EL244 vs BLM” value (DEG Wfdc17) was -1.30 and the “Xndc1 log2 nFC BLM/EL244 vs BLM” value (DEG Xndc1, nFC: normalised fold change) was 1.14. The “Zmynd10 log2 nFC BLM/EL244 vs BLM” value (DEG Zmynd10, nFC: normalised fold change) was 1.28, the “log2 nFC BLM/EL244 vs BLM” value (DEG Zranb3) was -1.43 and the “log2 nFC BLM/EL244 vs BLM” value (DEG Zwilch) was -1.54. For the same compound, the “1810010H24Rik log2 nFC” value [1] was 0.90, the “1810010H24Rik nFC” value [1] was 1.87 and the “Abca8a log2 nFC” value [1] was 0.75. For the same compound, the “Abca8a nFC” value [1] was 1.68, the “Abi3bp log2 nFC” value [1] was 1.00 and the “Abi3bp nFC” value [1] was 2.00. For the same compound, the “Acbd4 log2 nFC” value [1] was 0.86, the “Acbd4 nFC” value [1] was 1.81 and the “Adgrf5 log2 nFC” value [1] was 0.68. For the same compound, the “Adgrf5 nFC” value [1] was 1.60, the “Adh7 log2 nFC” value [1] was 1.02 and the “Adh7 nFC” value [1] was 2.02. For the same compound, the “Aldh1a1 log2 nFC” value [1] was 0.78, the “Aldh1a1 nFC” value [1] was 1.71 and the “Ankrd44 log2 nFC” value [1] was 0.84. The “Ankrd44 nFC” value [1] was 1.79, the “Aox3 log2 nFC” value [1] was 1.07 and the “Aox3 nFC” value [1] was 2.09. For the same compound, the “Ar log2 nFC” value [1] was 1.04, the “Ar nFC” value [1] was 2.06 and the “Arhgef28 log2 nFC” value [1] was 0.76. For the same compound, the “Arhgef28 nFC” value [1] was 1.70, the “Arhgef38 log2 nFC” value [1] was 0.87 and the “Arhgef38 nFC” value [1] was 1.83. For the same compound, the “Arl4a log2 nFC” value [1] was 0.70, the “Arl4a nFC” value [1] was 1.63 and the “Atp2a3 log2 nFC” value [1] was 0.83. The “Atp2a3 nFC” value [1] was 1.77, the “Atp6v1c2 log2 nFC” value [1] was 1.03 and the “Atp6v1c2 nFC” value [1] was 2.04. The “Atp7b log2 nFC” value [1] was 0.95, the “Atp7b nFC” value [1] was 1.93 and the “Bcar3 log2 nFC” value [1] was 0.82. For the same compound, the “Bcar3 nFC” value [1] was 1.76, the “Bmp6 log2 nFC” value [1] was 1.07 and the “Bmp6 nFC” value [1] was 2.10. The “Cbr2 log2 nFC” value [1] was 0.91, the “Cbr2 nFC” value [1] was 1.88 and the “Ccdc153 log2 nFC” value [1] was 0.79. The “Ccdc153 nFC” value [1] was 1.73, the “Ccdc171 log2 nFC” value [1] was 1.04 and the “Ccdc171 nFC” value [1] was 2.06. For the same compound, the “Ccl5 log2 nFC” value [1] was 0.76, the “Ccl5 nFC” value [1] was 1.69 and the “Cep85l log2 nFC” value [1] was 1.02. For the same compound, the “Cep85l nFC” value [1] was 2.03.
